Laboratory results: patent US20060079497A1, “Lavendamycin analogues and methods of synthesizing and using lavendamycin analogues” (Ball State University, priority 2004, published 2006)

What was measured:
[1] = Cytotoxicity assay (MTT), normal murine spleen cells stimulated with concanavalin A; type: cell-based; conditions: normal murine spleen cells stimulated with concanavalin A; normal mouse spleen stimulated with concanavalin A inhibited by 50%; read-out: Mean CC50 (Normal Mouse Spleen) ± SEM (no. of expts)
Protocol: (§1) Normal murine spleen cells were washed in HBSS, cultured at 2.5×10^6 or 5×10^6 cells per mL in RPMI 1640 (with Hepes) complete medium with 2 mM-L-glutamine, 1 mM sodium pyruvate, 0.05 mM β-mercaptoethanol, penicillin, streptomycin, and amphotericin B with 10% fetal calf serum and Concanavalin A (ConA) at 2.5 μg/mL in a 96-well microtiter plate. A range of diluted analogs were added to triplicate culture wells and the cells were incubated at 37° C. in 5% CO2. Wells containing cells, media and ConA were used as controls. Forty-eight hours post incubation, 20 μL of the vital dye MTT (3-[4,5-Dimethylthiazol-2-yl]-2,5-diphenyltetrazolium bromide; thiazolyl blue) at 5 mg/mL was added to each well and the cultures re-incubated for 4-6 hours. Following centrifugation, the supernatants were decanted and the stained cells were resuspended in 100 μL of 0.4% HCl acidified isopropanol. The optical densities of each well were read at 600 nm using a Cambridge Technologies series 700 microplate reader. The human lymphocytic cell lines CCRF-CEM (ATCC: HTB 176) and H-9 (ATCC: CCL 119) were subcultured from recently cultured cells grown in complete RPMI 1640 medium as described above but without the β-mercaptoethanol and ConA at 6.25×10^5 and 2×10^6 per mL in a 96 well culture plate. These cell numbers represented log phase and early stationary phase of the freshly cultured cells. As these cell lines rapidly reproduce without mitogenic stimulation, Con A was not used. A range of analogues or media alone was added in triplicate to the cultures and the cultures incubated, pulsed with MTT, harvested and their growth estimated as described above for the murine cultures. The CC50 or the concentration of drug which inhibited cell growth as estimated by MTT formazan production to 50% of that of untreated control cells was determined by linear interpolation for each lavendamycin analog.

[2] = Animal toxicity studies in mice (National Cancer Institute and other studies); conditions: mouse, in vivo
[3] = Cytotoxicity assay (MTT), human lymphocytic cell lines, pooled data; type: cell-based; conditions: human lymphocytic cell lines CCRF-CEM and H-9, pooled data, H-9 and CEM inhibited by 50%, read-out: Mean CC50 (Human Cell Lines) ± SEM (no. of expts)
Protocol: as §1

[4] = biological target: T1, HIV reverse transcriptase (HIV-RT) (Human immunodeficiency virus type 1 group M subtype B, UniProt P04585); assay: HIV-RT assay (3H-TTP incorporation, modified assay of Okada et al.); type: biochemical; conditions: Mean IC50 ± SEM (no. of expts), 50% inhibition of HIV RT activity toward 1 unit of enzyme
T1 construct: 1 unit/mL of HIV-RT (Worthington Biochemical Corp., Freehold, N.J.); purchased Worthington Biochemical Corp., Freehold, N.J
Protocol: Briefly, the analogues were initially dissolved in either DMSO or HEPES buffer (pH 7.2) and then diluted to the appropriate concentration before addition to the assay mixtures. […] Several control wells without any inhibitors were also included on each microtiter plate. The reactions were allowed to proceed for 1 h at 37° C. […] A more detailed description of reaction conditions is provided below in the Examples. The concentration of drug which inhibited 50% of the enzyme activity (IC50) was determined by using the computer software program Calcusyn, which plots the dose-effect curves from the inhibition data and calculates the IC50 for each drug.
The assay procedure described below is adapted from Okada et al. (Okada, H.; Mukai, H.; Inouye, Y; Nakamura, S. “Biological Properties of Streptonigrin Derivatives II. Inhibition of Reverse Transcriptase Activity,” J. Antibiot., 1986, 39, 306-308). The lavendamycin analogs were initially dissolved in DMSO at a concentration of 1 mg/mL. Occasionally, mild sonication and heat were used to dissolve the less soluble compounds. The dissolved analogs were then serially diluted in distilled water to achieve concentrations in the final reaction mixture ranging from 0.5-15 μM. In addition to the lavendamycin analogs, the final reaction mixture contained 100 mM Tris-HCl (pH 8.0), 5 mM MgCl2, 5 mM dithiothreitol, 60 mM NaCl, 0.2 mM [^3H] thymidine triphosphate(5 μCi well), 4 μg/mL poly (rA)-oligo(dT)12-18 (Amersham Pharmacia Biotech, Piscataway, N.J.) and 1 unit/mL of HIV-RT (Worthington Biochemical Corp., Freehold, N.J.) in a total volume of 300 μL. For each assay, the reaction mixture containing 8× buffer, double distilled H2O, ^3HTTP, template-primer and HIV-RT was pre-mixed in a 15-mL sterile tube in quantities required for the particular experiment. After adding the enzyme, the reaction mixture was mixed and kept on ice. The inhibitors, either AZT(Moravek Biochemicals, Brea, Calif.), analogs or both were added to appropriate wells in a 24 well microtiter plate and ddH2O was added to each well to bring the volume of all test wells to 100 μL. Two hundred μL of the chilled reaction mixture was then added to each of the test wells, mixed, and incubated for 1 hr at 37° C. Several control wells with no inhibitors were included on each test plate. After stopping the reactions with 25 μL 0.1 M EDTA, triplicate samples of 15 μL from each test well were spotted on DE81 ion exchange filter paper squares (Whatman Paper, Maidstone, England). After drying, each filter was washed for 10 minutes three times with 5% TCA-NHPO4, three times with 0.6M NaCl-[…] Na Citrate, one time with ddH2O and one time with 95% ethanol. After drying the individual filter papers were added to 5 mL Scintiverse E (Fisher Scientific, Chicago, Ill.) scintillation fluid and the amount of 3H-TTP uptake measured as counts per minute on a Beckman liquid scintillation counter. […] The results were then analyzed using Calcusyn, a windows software program for dose effect analysis designed by T. -C. Chou and M. P. Hayball and published by Biosoft® (UK).

tumor = assay: Antitumor activity (applicant's earlier studies)
mice [5] = conditions: cited from earlier work
mice [6] = assay: Animal toxicity studies in mice (National Cancer Institute and other studies); conditions: SCID mice, 300 mg/kg/day for 10 days

In the case of NC(=O)c1cc2c([nH]c3ccccc32)c(-c2ccc3c(n2)C(=O)C(N)=CC3=O)n1 [Compound 21, Demethyllavendamycin Amide], the CC50 at 48 h [1] is reported as 15 ± 2 µM, the MTD [2] is reported as 400 mg/kg and the CC50 at 48 h [3] is reported as 17 ± 3 µM. For the same compound, the IC50 [4] was 20.5 ± 5 µM and the antitumor activity (tumor) was “highly active antitumor agents”.

For COc1cccc2c1C(=O)c1c(O)c3c(c(O)c1C2=O)C[C@@](O)(C(=O)CO)C[C@@H]3O[C@H]1C[C@H](N)[C@H](O)[C@H](C)O1 [adriamycin], the maximally tolerated dose (mice [5]; once a week for three weeks) is given as “below 10 mg/kg”.

For COC1=C(N)C(=O)c2nc(-c3nc(C(=O)O)c(C)c(-c4ccc(OC)c(OC)c4O)c3N)ccc2C1=O [streptonigrin], the lethal dose (mice [5]) is listed as no less than 0.4 mg/kg.

COC(=O)c1nc(-c2ccc3c(n2)C(=O)C(N)=C(OC)C3=O)c2[nH]c3ccccc3c2c1C gave a melting point greater than 280 °C.

In the case of CCCCCCCCOC(=O)c1cc2c([nH]c3ccccc32)c(-c2ccc3c(n2)C(=O)C(NC(C)=O)=CC3=O)n1 [Compound 15, 7-N-Acetyldemethyllavendamycin n-Octyl Ester], the tolerability (mice [6]) is reported as “no animal death or loss of weight”.

For COC(=O)c1cc2c([nH]c3ccccc32)c(-c2ccc3c(n2)C(=O)C(N)=C(OC)C3=O)n1, the melting point was greater than 280 °C.

In the case of Cc1c(C(=O)O)nc(-c2ccc3c(n2)C(=O)C(N)=CC3=O)c2[nH]c3ccccc3c12 [lavendamycin], the maximum tolerated dose (mice [5]; reported) is listed as 12.8 mg/kg.

In the case of COC(=O)c1nc(-c2ccc3c(n2)C(=O)C(N)=CC3=O)c2[nH]c3ccccc3c2c1C [Compound 2b, lavendamycin methyl ester, reference compound], the antitumor activity (tumor) is reported as “highly active antitumor agents”.
